pIC50: −log10 of the molar value.
target: NaV1.8 (Homo sapiens, UniProt Q9Y5Y9); test: Activity against NaV 1.8 channel (Table 3), optical membrane potential / electrophysiology assays; format: cell-based
Protocol: Compounds of the invention are useful as antagonists of voltage-gated sodium ion channels. Antagonist properties of test compounds were assessed as follows. Cells expressing the NaV of interest were placed into microtiter plates. After an incubation period, the cells were stained with fluorescent dyes sensitive to the transmembrane potential. The test compounds were added to the microtiter plate. The cells were stimulated with either a chemical or electrical means ti evoke a NaV dependent membrane potential change from unblocked channels, which was detected and measured with trans-membrane potential-sensitive dyes. Antagonists were detected as a decreased membrane potential response to the stimulus. The optical membrane potential assay utilized voltage-sensitive FRET sensors described by Gonzalez and Tsien (See, Gonzalez, J. E. and R. Y. Tsien (1995) “Voltage sensing by fluorescence resonance energy transfer in single cells” Biophys J 69(4): 1272-80, and Gonzalez, J. E. and R. Y. Tsien (1997) “Improved indicators of cell membrane potential that use fluorescence resonance energy transfer” Chem Biol 4(4): 269-77) in combination with instrumentation for measuring fluorescence changes such as the Voltage/Ion Probe Reader (VIPR®) (See, Gonzalez, J. E., K. Oades, et al. (1999) “Cell-based assays and instrumentation for screening ion-channel targets” Drug Discov Today 4(9): 431-439).
The following is an example of how NaV1.3 inhibition activity is measured using the optical membrane potential method #2. Other subtypes are performed in an analogous mode in a cell line expressing the NaV of interest.
HEK293 cells stably expressing NaV1.3 are plated into 96-well microtiter plates. After an appropriate incubation period, the cells are stained with the voltage sensitive dyes CC2-DMPE/DiSBAC2(3) as follows.
2X CC2-DMPE=20 μM CC2-DMPE: 10 mM CC2-DMPE is vortexed with an equivalent volume of 10% pluronic, followed by vortexing in required amount of HBSS containing 10 mM HEPES. Each cell plate will require 5 mL of 2X CC2-DMPE. 50 μL of 2X CC2-DMPE is to wells containing washed cells, resulting in a 10 μM final staining concentration. The cells are stained for 30 minutes in the dark at RT.
2X DISBAC2(3) with ABSC1=6 μM DISBAC2(3) and 1 mM ABSC1: The required amount of 10 mM DISBAC2(3) is added to a 50 ml conical tube and mixed with 1 μL 10% pluronic for each mL of solution to be made and vortexed together. Then HBSS/HEPES is added to make up 2X solution. Finally, the ABSC1 is added.
The 2X DiSBAC2(3) solution can be used to solvate compound plates. Note that compound plates are made at 2X drug concentration. Wash stained plate again, leaving residual volume of 50 μL. Add 50 uL/well of the 2X DiSBAC2(3) w/ABSC1. Stain for 30 minutes in the dark at RT.
The electrical stimulation instrument and methods of use are described in ION Channel Assay Methods PCT/US01/21652, herein incorporated by reference. The instrument comprises a microtiter plate handler, an optical system for exciting the coumarin dye while simultaneously recording the coumarin and oxonol emissions, a waveform generator, a current- or voltage-controlled amplifier, and a device for inserting electrodes in well. Under integrated computer control, this instrument passes user-programmed electrical stimulus protocols to cells within the wells of the microtiter plate.
Assay Protocol • 1. Insert or use electrodes into each well to be assayed. • 2. Use the current-controlled amplifier to deliver stimulation wave pulses for 3 s. Two seconds of pre-stimulus recording are performed to obtain the un-stimulated intensities. Five seconds of post-stimulation recording are performed to examine the relaxation to the resting state.
Data are analyzed and reported as normalized ratios of background-subtracted emission intensities measured in the 460 nm and 580 nm channels. Background intensities are then subtracted from each assay channel. […]

Structure (SMILES)	pIC50
CC(C)(C)c1ccc(C(=O)Nc2cccc(S(N)(=O)=O)c2)c(Oc2ccc(Cl)cc2Cl)c1 [Compound 113]	> 5.70
NS(=O)(=O)c1cccc(NC(=O)c2cccc(OC(F)(F)F)c2)c1 [Compound 74]	< 5.00
COc1ccccc1C(=O)Nc1cccc(S(N)(=O)=O)c1 [Compound 85]	< 5.00
NS(=O)(=O)c1cccc(NC(=O)c2cccc(Br)c2)c1 [Compound 40]	< 5.00
Cc1ccccc1Oc1cc(C(C)(C)C)ccc1C(=O)Nc1cccc(S(N)(=O)=O)c1 [Compound 55]	> 5.70
NS(=O)(=O)c1cccc(NC(=O)c2ccccc2Oc2ccc(C(F)(F)F)cc2)c1 [Compound 16]	> 5.70
CCCCOc1ccc(C(=O)Nc2cccc(S(N)(=O)=O)c2)cc1 [Compound 57]	< 5.00
CC(C)(C)c1ccc(C(=O)Nc2cccc(S(N)(=O)=O)c2)c(Oc2ccc(C#N)cc2)c1 [Compound 130]	> 5.70
Cc1cc(F)ccc1Oc1cc(C(C)(C)C)ccc1C(=O)Nc1cccc(S(N)(=O)=O)c1 [Compound 108]	> 5.70
NS(=O)(=O)c1cccc(NC(=O)c2ccccc2C2CCCCC2)c1 [Compound 83, 2-Cyclohexyl-N-(3-(aminosulfonyl)phenyl)benzamide]	> 5.70
CC(C)(C)c1ccc(C(=O)Nc2cccc(S(N)(=O)=O)c2)c(Oc2ccccc2Cl)c1 [Compound 48]	> 5.70
CC(C)(C)c1ccc(C(=O)Nc2cccc(S(N)(=O)=O)c2)c(Oc2cccnc2)c1 [Compound 61]	> 5.70
NS(=O)(=O)c1cccc(NC(=O)c2ccccc2N2CCOCC2)c1 [Compound 92]	< 5.00
Cc1ccc(Oc2ccccc2C(=O)Nc2cccc(S(N)(=O)=O)c2)cc1 [Compound 59]	5.00 to 5.70
NS(=O)(=O)c1cccc(NC(=O)c2ccc(Br)cc2)c1 [Compound 13]	< 5.00
NS(=O)(=O)c1cccc(NC(=O)c2ccc(Cl)c(Cl)c2)c1 [Compound 3]	< 5.00
Cc1ccc(Oc2cc(C(C)(C)C)ccc2C(=O)Nc2cccc(S(N)(=O)=O)c2)c(C)c1 [Compound 109]	> 5.70

Structure (SMILES)	pIC50
NS(=O)(=O)c1cccc(NC(=O)c2ccc(Cl)cc2Cl)c1 [Compound 120]	< 5.00
NS(=O)(=O)c1cccc(NC(=O)c2ccccc2-n2cccc2)c1 [Compound 4]	< 5.00
COc1ccc(C(=O)Nc2cccc(S(N)(=O)=O)c2)c(OC)c1 [Compound 123]	< 5.00
COc1ccc(C(=O)Nc2cccc(S(N)(=O)=O)c2)c(C(F)(F)F)c1 [Compound 133]	< 5.00
COc1ccc(C(=O)Nc2cccc(S(N)(=O)=O)c2)cc1C(F)(F)F [Compound 42]	< 5.00
COc1ccc(C(=O)Nc2cccc(S(N)(=O)=O)c2)cc1 [Compound 22]	< 5.00
NS(=O)(=O)c1cccc(NC(=O)c2ccccc2Nc2cccnc2)c1 [Compound 27]	5.00 to 5.70
CCCCc1ccc(C(=O)Nc2cccc(S(N)(=O)=O)c2)cc1 [Compound 96]	< 5.00
CC(C)(C)c1ccc(C(=O)Nc2cccc(S(N)(=O)=O)c2)c(Oc2cc(C(F)(F)F)ncn2)c1 [Compound 129]	< 5.00
NS(=O)(=O)c1cccc(NC(=O)c2ccc3c(c2)OCO3)c1 [Compound 32]	< 5.00
COc1ccc(Oc2cc(C(C)(C)C)ccc2C(=O)Nc2cccc(S(N)(=O)=O)c2)cc1 [Compound 88]	> 5.70
CC(=O)Nc1ccc(C(=O)Nc2cccc(S(N)(=O)=O)c2)cc1 [Compound 54]	< 5.00
Cc1c(Cl)cc(NC(=O)c2ccc(C(C)(C)C)cc2)cc1S(N)(=O)=O [Compound 24]	< 5.00
CC(C)(C)c1ccc(C(=O)Nc2cccc(S(N)(=O)=O)c2)cc1 [Compound 67]	> 5.70
CC(C)(C)c1ccc(C(=O)Nc2cccc(S(N)(=O)=O)c2)c(Oc2ccccc2N2CCOCC2)c1 [Compound 98]	> 5.70
CC(=O)c1cccc(Nc2ccccc2C(=O)Nc2cccc(S(N)(=O)=O)c2)c1 [Compound 36]	< 5.00
CC(C)(C)c1ccc(C(=O)Nc2cccc(S(N)(=O)=O)c2)c(Oc2ccccc2C(F)(F)F)c1 [Compound 104]	> 5.70

Reference: patent US8841483B2, “Compositions useful as inhibitors of voltage-gated sodium channels” (Vertex Pharmaceuticals Incorporated, priority 2006, dated 2014)
